Experimental data taken from patent publication US20260048046A1, “METHOD FOR IMPROVING GROWTH PERFORMANCE IN FEEDLOT CATTLE” (Elanco US Inc., priority 2022, published 2026).

Test system: beef feedlot cattle
Assay: 56-d study: abnormal health observations and removals
Type: in vivo
Description: This example describes a randomized complete block study that evaluated LUB dose (0, 1.5, 3.5, and 5.5 mg kg^−1 dry matter) during the last 56 d of the feeding period on live weight, carcass weight, and associated ratios in beef feedlot cattle. Carcass characteristics, mobility, and health were also evaluated. All cattle received monensin and tylosin throughout the study.
A randomized complete block design was used to evaluate the effects of LUB on calculated growth performance of 2,880 British and Continental European crossbred steers typical for U.S. feedlots. Bos indicus breeding was limited to less than ⅛. The study evaluated four
LUB doses: 0 (control, CON), 1.5, 3.5, and 5.5 mg·kg^−1 DM. There were 12 blocks, each block containing four replicate pens that started LUB feeding on the same date. Steers were randomized within each block of four pens with 60 steers per pen, resulting in a total of 720 steers enrolled in each treatment. LUB feeding started on Jun. 24, 2018, Jul. 1, 2018, and Jul. 15, 2018, four blocks on each date.
During the approximately 10 to 15 d acclimation phase and the entire treatment phase until cattle were loaded for slaughter, all animals were observed by trained caretakers at least once daily, but health issues were only noted by exception. All abnormalities were recorded even if considered common for feedlot cattle. Abnormal health observations were observations that the observer considered as 1) typical for beef cattle at that age, or 2) not causing undue pain or distress to the animal, and/or, 3) not impeding the animal's growth at the time the observation was made. Animals with abnormal health observations were allowed to remain in the study. Animals were allowed to receive concomitant therapies (e.g., antibiotic treatment for respiratory disease and treatment for bloat). Health observations requiring an animal to be classified as “removed” were abnormalities that the observer considered as 1) resulting in pain or distress to the animal, or 2) likely to result in further deterioration of the animal's health, and/or 3) impairing the animal's ability to access food or water at the time of the observation. Animals removed from the study during the treatment or withdrawal phase were penned separately in the research feedlot and tracked through slaughter to assure accountability of all cattle on study per food use authorization or were euthanized and necropsied. Decisions to remove an animal from treatment phase were made by the Investigator or Manager. Animals that were found dead at the time of the observation were removed from the pen as soon as practical and necropsied (if possible).
The label claim variable of cumulative NH3 gas emissions over the treatment period normalized by final BW (with d −59 BW as a covariate) for the period and HCW (g of gas kg^−1 of BW or g of gas kg^−1 HCW) was determined by utilizing NH3 gas emissions equations developed from the LUB clinical effectiveness study (FDA-FOI, 2018) and validated using animals of similar BW as described by Brown et al. (2019). The pen was the experimental unit for each outcome. Differences were deemed significant using a two-sided test at Ptrt≤0.05, however, a less stringent significance threshold of Ptrt≤0.10 was used for abnormal health observations. Fixed effect of treatment and random effects of time replicate and block within time replicate were included in the model. Discrete variables were analyzed using a generalized linear mixed model, Proc GLIMMIX SAS version 9.4 unless there were convergence problems due to sparseness of data. A binomial distribution was assumed and a logit link used in the analysis. Contrasts were constructed between the CON group and each non-CON dosage group, and differences were deemed significant at Pdose≤0.05. […]

[1] = Lubabegron 1.5 mg·kg^−1 DM, 56 d, 720 hd per treatment
[2] = Lubabegron 3.5 mg·kg^−1 DM, 56 d, 720 hd per treatment
[3] = Lubabegron 5.5 mg·kg^−1 DM, 56 d, 720 hd per treatment

In the case of `CC(C)(Cc1ccc(Oc2ncccc2C#N)cc1)NC[C@H](O)COc1ccccc1-c1cccs1` [LUB, 2-{4-[2-({(2S)-2-Hydroxy-3-[2-(2-thienyl)phenoxy]propyl}amino)-2-methylpropyl]phenoxy}nicotinonitrile], the “Abnormal health observations and animal removals, between-treatment differences” value (CON, 1.5, 3.5, 5.5 mg·kg^−1, 56 d, Ptrt>0.10) is reported as “No significant (Ptrt>0.10) between-treatment differences”, the “Bloat (gastrointestinal), rate” value [1] is reported as 0.1% and the “Bloat (gastrointestinal), total number” value [1] is reported as 1. For the same compound, the “Dead (animals found dead), rate” value [1] was 0.3%, the “Dead (animals found dead), total number” value [1] was 2 and the “Lameness (musculoskeletal), rate” value [1] was 1.3%. The “Lameness (musculoskeletal), total number” value [1] was 9, the “Removals (found dead and removed during treatment phase), rate” value (shortened to “Removals … rate”) [1] was 2.5% and the “Removals (found dead and removed during treatment phase), total number” value (shortened to “Removals … total number”) [1] was 18. For the same compound, the “Bloat (gastrointestinal), rate” value [2] was 0.6%, the “Bloat (gastrointestinal), total number” value [2] was 4 and the “Dead (animals found dead), rate” value [2] was 0.7%. The “Dead (animals found dead), total number” value [2] was 5, the “Lameness (musculoskeletal), rate” value [2] was 0.4% and the “Lameness (musculoskeletal), total number” value [2] was 3. For the same compound, the “Removals … rate” value [2] was 1.5%, the “Removals … total number” value [2] was 11 and the “Bloat (gastrointestinal), rate” value [3] was 0.3%. For the same compound, the “Bloat (gastrointestinal), total number” value [3] was 2, the “Lameness (musculoskeletal), rate” value [3] was 1.0% and the “Lameness (musculoskeletal), total number” value [3] was 7. The “Pneumonia (respiratory), rate” value [3] was 0.3%, the “Pneumonia (respiratory), total number” value [3] was 2 and the “Removals … rate” value [3] was 1.8%. For the same compound, the “Removals … total number” value [3] was 13.
